Measured values: patent US20170290889A1, “METHODS AND COMPOSITIONS FOR TREATING DYSBIOSIS AND GASTROINTESTINAL AND INFLAMMATORY DISORDERS” (New York University, priority 2016, published 2017)

Columns and labels:
Hookworm = assay: Albendazole deworming of Orang Asli (formalin-ether sedimentation, Kato Katz); assay type: in vivo, human
T. trichiura = assay: as above; assay type: in vivo, human
Ascaris spp. = assay: as above; assay type: in vivo, human
Clostridiales = assay: 16S sequencing of mouse stool / small intestinal microbiota (LEfSe); assay type: in vivo; conditions: stool of uninfected Nod2−/− mice treated with recombinant cytokine, 16S / LEfSe
[1] = test system: M2 macrophage activation genes; assay: RNA-seq gene expression analysis of small intestinal tissue (ileum) of Nod2−/− mice treated with rIL-13 or PBS; assay type: in vivo; conditions: for Log2 Fold Change: Nod2−/− mice treated with recombinant IL-13 compared to PBS controls
Excerpt: Mice. Nod2−/−, Rag1−/−, Nod2−/−, and Stat6−/− mice on the C57BL/6 background were previously described and bred onsite in an MNV/Helicobacter-free specific pathogen free (SPF) facility at NYU School of Medicine (6, 23). Wild-type (WT) C57BL/6 mice were purchased from Jackson Laboratory and bred onsite to generate controls for experiments. Bone marrow chimeras were generated by lethally irradiating 8-week old female recipient mice (1100 CGy in two divided doses) followed by intravenous (i.v.) injection of 5×10^6 T cell-depleted bone marrow cells from donor female mice. For anti-CD4 treatment, mice were infected with T. muris and injected intra-peritoneally (IP) with 0.25 mg anti-CD4 (clone GK1.5) or anti-IgG2b isotype control (clone LTF-2) (BioXCell) every 3 days for 21 days and animals were sacrificed on day 21. For anti-IL13 treatment, mice were infected with H. polygyrus and injected IP with 0.15 mg anti-IL13 (clone 1316H) (eBioscience) or anti-IgG1 isotype control (clone 43414) (R&D Systems) starting on day 3 post-infection every 3 days for 12 days and animals were sacrificed on day 12. For recombinant IL-13 and IL-4 experiments, mice were injected IP with a complex of 25 μg of anti-IL13 (eBio1316H) and 5 μg of recombinant IL-13 (Peprotech cat #210-13), or a complex of 25 μg of anti-IL4 (BioXcel) and 5 μg of recombinant IL-4 (Peprotech cat #214-14) for 21 days and mice were sacrificed on day 21.
Gene Expression Analysis. RNA was isolated from one cm of small intestinal tissue (ileum) from Nod2^−/− mice treated with rIL-13 or PBS, or WT mice treated with PBS for normalization. An RNA library was prepared using the TruSeq stranded total RNA, with the RiboZero Gold kit and samples were sequenced on the Illumina HiSeq to generate single-end 50 bp reads. Raw sequencing reads were aligned to the mouse reference genome mm10 and the RefSeq reference transcriptome using TopHat (v2.0.12) with the alignment parameter—library-type fr-firststrand (28). Reads with mappability score (MAPQ) <30 were removed. The total number of filtered reads were counted for each gene using htseq-count with the parameters—stranded=reverse and—mode=union. Singleton genes (i.e. genes with total count <1) were filtered and the resulting count matrix was used for differential analysis using the DESeq2 workflow with default parameters (29, 30). Differential genes with rIL-13 treatment were identified at FDR 10%. Pathway analysis was performed using the DAVID platform as previously described (6).

Bacteroides vulgatus = assay: B. vulgatus colonization (stool, small intestinal tissue) in Nod2−/− mice, reported together with goblet cells; assay type: in vivo; conditions: Nod2−/− mice injected IP with complex of 5 μg recombinant cytokine and 25 μg anti-cytokine antibody for 21 days
[2] = T. trichiura, post-treatment n=64

## CCCSc1ccc2nc(NC(=O)OC)[nH]c2c1 [albendazole]
Hookworm; 20 days
  Cure rate (%): 96 .3%
  Number of infected persons cured after deworming: 26
Hookworm; after albendazole 3×400 mg
  range of epg after treatment: 22 epg
Hookworm; post-treatment n=64
  Light-intensity infections after treatment (%): 1.6%
  Light-intensity infections after treatment, number: 1
  Total infections after treatment (%): 1.6%
  Total infections after treatment, number: 1
T. trichiura; T. trichiura, 20 days, albendazole 3 doses, 400 mg/day
  Cure rate (%): 32.9%
T. trichiura; T. trichiura, after albendazole 3×400 mg
  range of epg after treatment: 22-2,266 epg
T. trichiura; [2]
  Light-intensity infections after treatment (%): 70.3%
  Light-intensity infections after treatment, number: 45
  Moderate-intensity infections after treatment (%): 3.1%
  Moderate-intensity infections after treatment, number: 2
  Total infections after treatment (%): 73.4%
  Total infections after treatment, number: 47
T. trichiura; post treatment with Albendazole (3 doses, 400 mg/day)
  Trichuris trichiura egg burden (eggs per gram of feces, Kato-Katz): reduced
Ascaris spp.; 20 days
  Cure rate (%): 80.0%
  Number of infected persons cured after deworming: 8
Ascaris spp.; after albendazole 3×400 mg
  range of epg after treatment: 22-4999 epg
Ascaris spp.; post-treatment n=64
  Light-intensity infections after treatment (%): 3.1%
  Light-intensity infections after treatment, number: 2
  Total infections after treatment (%): 3.1%
  Total infections after treatment, number: 2

B1: rIL-13: recombinant IL-13 (Peprotech cat #210-13), type 2 cytokine, injected IP as complex with anti-IL13 (protein, UniProt P20109 19-131, looked up)
Interleukin-13: APGPVPRSVSLPLTLKELIEELSNITQDQTPLCNGSMVWSVDLAAGGFCVALDSLTNISNCNAIYRTQRILHGLCNRKAPTTVSSLPDTKIEVAHFITKLLSYTKQLFRHGPF
modifications: complexed with anti-IL-13 antibody
notes: recombinant IL-13 (Peprotech cat #210-13), type 2 cytokine, injected IP as complex with anti-IL13
Clostridiales
  expansion of Clostridiales: expansion of Clostridiales was also observed
Clostridiales; listed as IL-13
  expansion of Clostridiales: induces the expansion of bacteria from the class Clostridia in the GI tract
[1]; gene Arg1 (NM_007482)
  Log2 Fold Change: 1.468
[1]; gene Ccl8 (NM_021443)
  Log2 Fold Change: 1.5
[1]; gene Cd5l (NM_009690)
  Log2 Fold Change: 1.504
[1]; gene Chi3l3 (NM_009892)
  Log2 Fold Change: 2.681
[1]; gene Ear11 (NM_053113)
  Log2 Fold Change: 1.698
[1]; gene Gm11428 (NM_001081957)
  Log2 Fold Change: 1.53
[1]; gene Retnla (NM_020509)
  Log2 Fold Change: 1.625
[1]; gene Saa3 (NM_011315)
  Log2 Fold Change: 1.846
[1]; gene Serpina3n (NM_009252)
  Log2 Fold Change: 1.58
[1]; rIL-13 treated Nod2−/− mice
  RNA-seq analysis of intestinal tissues: response: wound healing response characterized by expression of M2 macrophage genes
Bacteroides vulgatus
  effect on B. vulgatus and goblet cells: sufficient to reproduce the effect of helminth infection

B2: rIL-4: recombinant IL-4 (Peprotech cat #214-14), type 2 cytokine, injected IP as complex with anti-IL4 (protein, UniProt P07750 21-140, looked up)
Interleukin-4: HIHGCDKNHLREIIGILNEVTGEGTPCTEMDVPNVLTATKNTTESELVCRASKVLRIFYLKHGKTPCLKKNSSVLMELQRLFRAFRCLDSSISCTMNESKSTSLKDFLESLKSIMQMDYS
modifications: complexed with anti-IL-4 antibody
notes: recombinant IL-4 (Peprotech cat #214-14), type 2 cytokine, injected IP as complex with anti-IL4
Clostridiales
  expansion of Clostridiales: expansion of Clostridiales was also observed
Clostridiales; listed as IL-4
  expansion of Clostridiales: induces the expansion of bacteria from the class Clostridia in the GI tract
Bacteroides vulgatus
  effect on B. vulgatus and goblet cells: sufficient to reproduce the effect of helminth infection
